What was measured:
[1] = molecular target: T1, NMDAR2A (Homo sapiens, UniProt Q12879); test: NMDAR agonist assay, [3H]MK-801 binding, NMDAR2A expressing HEK cell membranes; format: biochemical; settings: 50 μM glutamate; for EC50: read-out: NMDAR2A B: log EC50 (converted)
T1 construct: expressed in transfected cells; host or cells: HEK cells (membrane extract)
How it was run: (§1)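 Membranes from HEK cells (300 μg protein) preincubated 15 min with 50 μM glutamate plus compound (1×10^−15–1×10^−7 M) or 1 mM glycine, then with 0.3 μCi [3H]MK-801 for 15 min at 25° C. (nonequilibrium); filter-bound DPM, baseline-subtracted, expressed as % of 1 mM glycine; EC50 and % maximum from three-parameter fit.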

[2] = Microsomal stability (Human); format: in vitro ADME; settings: after 60 minutes
Description: (§2) Microsomal stability of disclosed compounds was investigated. The following table indicates the percent of compound remaining after 60 minutes.

[3] = Plasma stability (Human); format: in vitro ADME; settings: after 60 minutes
Description: (§3) Plasma stability of disclosed compounds was investigated. The following table indicates the percent of compound remaining after 60 minutes.

[4] = Microsomal stability (Rat); format: in vitro ADME; settings: after 60 minutes
Description: as §2

[5] = IV pharmacokinetics in Sprague Dawley rats; format: in vivo; settings: Sprague-Dawley, rat, in vivo, iv, 2 mg/kg, normal saline; for Cmax: read-out: Cmax; for Vd: read-out: Vss
Description: Sprague Dawley rats were dosed intravenously using a normal saline formulation containing 2 mg/kg of the compounds identified in the below table. The table below summarizes the results of the IV pharmacokinetics.

[6] = molecular target: T2, NMDAR2B (Homo sapiens, UniProt Q13224); test: NMDAR agonist assay, [3H]MK-801 binding, NMDAR2B expressing HEK cell membranes; format: biochemical; settings: 50 μM glutamate; for EC50: read-out: NMDAR2B B: log EC50 (converted); for Emax: relative to 1 mM glycine, read-out: NMDAR2B A: % maximal [3H]MK-801 binding relative to 1 mM glycine
T2 construct: expressed in transfected cells; host or cells: HEK cells (membrane extract)
T2 sequence (Q13224 27-1484, species assumed, other chains not shown): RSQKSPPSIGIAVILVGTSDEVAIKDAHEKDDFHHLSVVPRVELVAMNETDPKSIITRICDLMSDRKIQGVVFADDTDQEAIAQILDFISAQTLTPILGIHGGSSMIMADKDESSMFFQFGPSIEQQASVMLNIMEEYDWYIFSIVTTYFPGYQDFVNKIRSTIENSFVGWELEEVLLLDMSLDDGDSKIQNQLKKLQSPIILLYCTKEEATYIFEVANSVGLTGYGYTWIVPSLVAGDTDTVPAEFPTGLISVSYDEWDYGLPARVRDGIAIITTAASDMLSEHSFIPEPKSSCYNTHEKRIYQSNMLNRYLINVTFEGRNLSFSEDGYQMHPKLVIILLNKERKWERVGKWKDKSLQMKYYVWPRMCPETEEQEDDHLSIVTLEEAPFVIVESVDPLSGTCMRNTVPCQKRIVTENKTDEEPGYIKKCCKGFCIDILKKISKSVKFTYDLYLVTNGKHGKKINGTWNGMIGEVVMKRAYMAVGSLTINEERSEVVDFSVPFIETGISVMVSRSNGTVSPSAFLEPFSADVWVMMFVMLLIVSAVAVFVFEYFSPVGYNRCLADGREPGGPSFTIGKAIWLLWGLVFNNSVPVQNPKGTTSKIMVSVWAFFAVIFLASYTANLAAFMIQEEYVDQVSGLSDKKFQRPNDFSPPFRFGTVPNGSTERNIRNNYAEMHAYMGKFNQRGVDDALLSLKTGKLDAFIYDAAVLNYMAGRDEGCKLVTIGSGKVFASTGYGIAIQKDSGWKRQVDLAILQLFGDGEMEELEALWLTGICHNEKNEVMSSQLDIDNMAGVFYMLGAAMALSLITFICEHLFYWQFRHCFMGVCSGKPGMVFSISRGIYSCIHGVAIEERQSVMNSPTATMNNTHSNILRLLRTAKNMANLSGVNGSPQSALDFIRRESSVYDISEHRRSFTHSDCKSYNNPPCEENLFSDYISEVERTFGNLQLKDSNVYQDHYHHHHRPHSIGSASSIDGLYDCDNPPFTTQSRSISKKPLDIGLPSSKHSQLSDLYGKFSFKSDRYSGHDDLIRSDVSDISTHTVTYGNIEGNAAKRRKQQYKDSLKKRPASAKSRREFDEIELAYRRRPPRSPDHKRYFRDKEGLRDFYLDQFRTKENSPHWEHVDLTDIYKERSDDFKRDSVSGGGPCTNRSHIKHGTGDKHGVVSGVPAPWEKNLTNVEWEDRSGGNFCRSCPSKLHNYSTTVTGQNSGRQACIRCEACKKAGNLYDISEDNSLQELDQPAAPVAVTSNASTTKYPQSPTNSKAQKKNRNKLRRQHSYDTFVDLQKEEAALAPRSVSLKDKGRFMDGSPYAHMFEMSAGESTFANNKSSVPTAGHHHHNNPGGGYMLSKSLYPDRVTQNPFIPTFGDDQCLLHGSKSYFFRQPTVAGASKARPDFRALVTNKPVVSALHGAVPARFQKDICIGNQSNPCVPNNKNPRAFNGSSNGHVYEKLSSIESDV
How it was run: as §1

[7] = Plasma stability (Rat); format: in vitro ADME; settings: after 60 minutes
Description: as §3

[8] = Oral pharmacokinetics in Sprague Dawley rats (plasma, brain, CSF); format: in vivo; settings: rat, 10 mg/kg; for Tmax / AUC(0-t) / bioavailability / Cmax: Sprague-Dawley, po, plasma; for Tmax / AUC(0-t) / Cmax / CSF Cmax / Brain Cmax: per os; for Tmax: read-out: Tmax; for bioavailability: per os 10 mg/kg; for Cmax: read-out: Cmax
Description: In another experiment, Sprague Dawley rats were dosed per os (oral gavage) using a normal saline formulation containing 10 mg/kg of the compounds identified in the table below. Plasma, brain, and CSF samples were analyzed at various time points over a 24 hour period. The table below summarizes the results of the oral pharmacokinetics, where the first three values (Tmax, Cmax and AUClast) are plasma values.

[9] = test system: Sprague Dawley rats; test: Porsolt forced swim test; format: in vivo; settings: 1 h post-dose, 0.1 mg/kg
Description: A non-clinical in vivo pharmacology study (Porsolt assay) was performed to measure antidepressant-like effects. The study allowed for the evaluation of the effects of each compound on the Porsolt forced swim test as assessed by the rats' response (reduced floating time) during a 5-minute swimming test.
Male 2-3 month old Sprague Dawley rats were used (Harlan, Indianapolis, Ind.). Rats were housed in Lucite cages with aspen wood chip bedding, maintained on a 12:12 light:dark cycle (lights on at 5 AM), and given ad libitum access to Purina lab chow (USA) and tap water throughout the study.
The Porsolt forced swim test adapted for use in rats was performed as described by Burgdorf et al., (The long-lasting antidepressant effects of rapastinel (GLYX-13) are associated with a metaplasticity process in the medial prefrontal cortex and hippocampus. Neuroscience 308:202-211, 2015). Animals were placed in a 46 cm tall×20 cm in diameter clear glass tube filled to 30 cm with tap water (23±1° C.) for 15 min on the first day (habituation) and 5 min on the subsequent test day. Animals were tested 1 h or 24 h post-dosing with the test compounds or vehicle control (0.5% sodium carboxymethyl cellulose in 0.9% sterile saline). A subset of compounds tested at 1 h post-dosing was tested again 1 wk post-dosing. Animals received a 15 min habituation session 1 day before the first 5 min test. Water was changed after every other animal. Animals were videotaped, and floating time as defined as the minimal amount of effort required to keep the animals head above water was scored offline by a blinded experimenter with high inter-rater reliability (Pearson's r >0.9).

[10] = molecular target: T3, NMDAR2C (Homo sapiens, UniProt Q14957); test: NMDAR agonist assay, [3H]MK-801 binding, NMDAR2C expressing HEK cell membranes; format: biochemical; settings: 50 μM glutamate
T3 construct: expressed in transfected cells; host or cells: HEK cells (membrane extract)
T3 sequence (Q14957 20-1233, species assumed, other chains not shown): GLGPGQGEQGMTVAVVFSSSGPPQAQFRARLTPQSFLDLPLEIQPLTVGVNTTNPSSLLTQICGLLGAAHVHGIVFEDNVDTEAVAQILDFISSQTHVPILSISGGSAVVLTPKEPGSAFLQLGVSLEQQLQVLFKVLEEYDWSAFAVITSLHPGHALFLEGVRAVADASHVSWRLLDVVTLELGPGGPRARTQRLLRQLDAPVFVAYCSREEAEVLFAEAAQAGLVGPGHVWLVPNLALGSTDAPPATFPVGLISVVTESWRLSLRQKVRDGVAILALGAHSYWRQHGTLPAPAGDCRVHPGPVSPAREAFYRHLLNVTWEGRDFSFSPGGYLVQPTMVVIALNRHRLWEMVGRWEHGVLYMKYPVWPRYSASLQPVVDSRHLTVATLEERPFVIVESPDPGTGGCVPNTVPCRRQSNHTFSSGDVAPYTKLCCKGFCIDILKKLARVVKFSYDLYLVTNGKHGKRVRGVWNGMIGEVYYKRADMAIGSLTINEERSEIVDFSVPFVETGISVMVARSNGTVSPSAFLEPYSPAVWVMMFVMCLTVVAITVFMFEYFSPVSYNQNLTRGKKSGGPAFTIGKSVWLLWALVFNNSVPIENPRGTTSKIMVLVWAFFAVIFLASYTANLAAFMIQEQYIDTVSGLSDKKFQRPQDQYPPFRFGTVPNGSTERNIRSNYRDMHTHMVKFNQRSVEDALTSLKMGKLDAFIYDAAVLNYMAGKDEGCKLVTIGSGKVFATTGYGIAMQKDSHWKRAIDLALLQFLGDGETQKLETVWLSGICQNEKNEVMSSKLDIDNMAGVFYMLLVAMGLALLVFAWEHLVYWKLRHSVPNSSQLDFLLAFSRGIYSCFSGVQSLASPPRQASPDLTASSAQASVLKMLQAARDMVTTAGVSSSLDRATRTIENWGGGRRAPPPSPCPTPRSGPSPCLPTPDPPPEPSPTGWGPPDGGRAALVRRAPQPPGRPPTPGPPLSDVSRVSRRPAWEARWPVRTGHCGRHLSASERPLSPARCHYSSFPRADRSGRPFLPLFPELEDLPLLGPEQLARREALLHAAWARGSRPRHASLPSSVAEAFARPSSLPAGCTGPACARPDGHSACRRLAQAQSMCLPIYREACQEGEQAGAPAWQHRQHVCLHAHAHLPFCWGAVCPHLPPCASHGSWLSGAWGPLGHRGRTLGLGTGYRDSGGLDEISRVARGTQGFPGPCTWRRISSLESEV
Description: (§4) Assays were conducted as described by Moskal et al., “GLYX-13: a monoclonal antibody-derived peptide that acts as an N-methyl-D-aspartate receptor modulator,” Neuropharmacology, 49, 1077-87, 2005. These studies were designed to determine if the test compounds act to facilitate NMDAR activation in NMDAR2A, NMDAR2B, NMDAR2C or NMDAR2D expressing HEK cell membranes as measured by increases in [^3H]MK-801 binding.
(§5) In the assay, 300 μg of NMDAR expressing HEK cell membrane extract protein was preincubated for 15 minutes at […] in the presence of saturating concentrations of glutamate (50 μM) and varying concentrations of test compound (1×10^−15M-1×10^−7M), or 1 mM glycine. Following the addition of 0.3 μCi of [3H]MK-801 (22.5 Ci/mmol), reactions were again incubated for 15 minutes at 25° C. (nonequilibrium conditions). Bound and free [3H]MK-801 were separated via rapid filtration using a Brandel apparatus.
(§6) In analyzing the data, the DPM (disintegrations per minute) of [3H]MK-801 remaining on the filter were measured for each concentration of test compound or for 1 mM glycine. The DPM values for each concentration of a ligand (N=2) were averaged. The baseline value was determined from the best fit curve of the DPM values modeled using the GraphPad program and the log(agonist) vs. response (three parameters) algorithm was then subtracted from all points in the dataset. The % maximal [^3H]MK-801 binding was then calculated relative to that of 1 mM glycine: all baseline subtracted DPM values were divided by the average value for 1 mM glycine. The EC50 and % maximal activity were then obtained from the best fit curve of the % maximal [3H]MK-801 binding data modelled using the GraphPad program and the log(agonist) vs. response (three parameters) algorithm.
(§7) The tables below summarize the results for the wild type […] NMDAR2A, NMDAR2B, NMDAR2C, and NMDAR2D, and whether the compound is not an agonist (−), is an agonist (+), or is a strong agonist (++), where column A is based on the % maximal [3H]MK-801 binding relative to 1 mM glycine (−=0; <100%=+; and >100%=++); and column B is based on log EC50 values (0=−; ≥1×10^−9 M (e.g., −8)=+; and <1×10^−9 M (e.g., −10)=++).

[11] = molecular target: T4, NMDAR2D (Homo sapiens, UniProt O15399); test: NMDAR agonist assay, [3H]MK-801 binding, NMDAR2D expressing HEK cell membranes; format: biochemical; settings: 50 μM glutamate; relative to 1 mM glycine
T4 construct: expressed in transfected cells; host or cells: HEK cells (membrane extract)
Description: as §4, §5, §6, §7

T1 sequence (Q12879 23-1464, species assumed, other chains not shown): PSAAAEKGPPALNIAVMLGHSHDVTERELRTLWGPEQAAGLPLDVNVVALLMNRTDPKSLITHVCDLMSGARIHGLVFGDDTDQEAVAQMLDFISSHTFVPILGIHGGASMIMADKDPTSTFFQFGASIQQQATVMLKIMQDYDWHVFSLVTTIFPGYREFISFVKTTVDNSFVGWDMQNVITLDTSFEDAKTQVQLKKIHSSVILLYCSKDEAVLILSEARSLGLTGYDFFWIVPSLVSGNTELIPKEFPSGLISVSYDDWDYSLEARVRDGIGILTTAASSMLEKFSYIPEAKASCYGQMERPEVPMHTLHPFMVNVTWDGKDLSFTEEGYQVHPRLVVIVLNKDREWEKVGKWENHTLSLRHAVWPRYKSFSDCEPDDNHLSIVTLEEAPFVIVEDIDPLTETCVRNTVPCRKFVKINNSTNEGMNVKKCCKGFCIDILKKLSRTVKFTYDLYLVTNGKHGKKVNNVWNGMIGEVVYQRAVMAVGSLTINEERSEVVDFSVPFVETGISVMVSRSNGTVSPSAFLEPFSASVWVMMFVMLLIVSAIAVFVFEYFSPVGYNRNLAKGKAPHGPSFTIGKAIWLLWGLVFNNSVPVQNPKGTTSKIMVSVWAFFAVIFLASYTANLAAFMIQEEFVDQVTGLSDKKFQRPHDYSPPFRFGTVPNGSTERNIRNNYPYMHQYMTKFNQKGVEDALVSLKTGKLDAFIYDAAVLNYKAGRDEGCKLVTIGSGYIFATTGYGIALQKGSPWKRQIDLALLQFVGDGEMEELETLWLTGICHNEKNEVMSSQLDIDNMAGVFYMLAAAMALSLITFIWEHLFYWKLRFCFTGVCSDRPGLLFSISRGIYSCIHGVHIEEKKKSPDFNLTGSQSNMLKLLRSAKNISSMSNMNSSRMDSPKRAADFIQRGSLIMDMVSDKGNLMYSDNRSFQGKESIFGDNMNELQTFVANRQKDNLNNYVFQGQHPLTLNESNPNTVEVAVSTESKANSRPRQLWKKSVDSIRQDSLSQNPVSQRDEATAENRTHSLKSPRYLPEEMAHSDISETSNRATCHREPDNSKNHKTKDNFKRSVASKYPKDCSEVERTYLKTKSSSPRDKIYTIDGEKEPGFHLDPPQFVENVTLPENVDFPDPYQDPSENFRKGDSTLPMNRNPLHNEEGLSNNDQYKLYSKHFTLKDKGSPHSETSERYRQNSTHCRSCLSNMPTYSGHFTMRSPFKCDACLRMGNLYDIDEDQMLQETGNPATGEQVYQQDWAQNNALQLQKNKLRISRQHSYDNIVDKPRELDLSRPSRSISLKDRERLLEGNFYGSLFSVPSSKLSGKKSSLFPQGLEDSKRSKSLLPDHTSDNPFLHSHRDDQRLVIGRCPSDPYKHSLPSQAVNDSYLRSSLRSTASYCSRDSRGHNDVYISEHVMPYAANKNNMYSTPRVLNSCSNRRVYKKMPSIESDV

Row | SMILES | EC50 [1] | Microsomal (Human): percent of compound remaining [2] | Plasma (Human): percent of compound remaining [3] | Microsomal (Rat): percent of compound remaining [4] | AUC(0-t) [5] | clearance [5] | half-life [5] | Cmax [5] | Vd [5] | EC50 [6] | Plasma (Rat): percent of compound remaining [7] | Tmax [8] | AUC(0-t) [8] | bioavailability [8] | Cmax [8] | CSF Cmax [8] | Brain Cmax [8] | % reduction in float time [9] | Significance vs. vehicle [9] | Emax [6] | also measured
1 | O=C1NCC=CCC12CC(F)(F)CN2 (single isomer, unassigned) [GL-2, 3,3-difluoro-1,7-diazaspiro[4.6]undec-9-en-6-one] | < 1 nM | 99% | 91% | 98% | 11500 ng·h/mL | 2.84 mL/min/kg | 244 min | 1630 ng/mL | 1.15 L/kg | < 1 nM | 97% | 30 min | 30500 ng·h/mL | 53% | 5820 ng/mL | 4433.95 ng/mL | 3556.03 ng/mL | 6% | No | – | –
2 | CC(C)C(=O)N1CCC2(CCCN2C(=O)C(C)C)C1=O (single isomer, unassigned) [GU-1, 1,1′-(6-oxo-1,7-diazaspiro[4.4]nonane-1,7-diyl)bis(2-methylpropan-1-one)] | – | 96% | 82% | 94% | 1140 ng·h/mL | 29.3 mL/min/kg | 10.8 min | 5850 ng/mL | 0.36 L/kg | < 1 nM | 89% | 15 min | 2100 ng·h/mL | 37% | 4620 ng/mL | 0 ng/mL | 0 ng/mL | – | – | < 100% | NMDAR2A A: % maximal [3H]MK-801 binding relative to 1 mM glycine ([1]; relative to 1 mM glycine): 0%
3 | O=C1NCCCC[C@]12CCCN2 [AU-1, (S)-1,7-diazaspiro[4.6]undecan-6-one] | ≥ 1 nM | 100% | 100% | 91% | 1840 ng·h/mL | 17.8 mL/min/kg | 84.6 min | 1620 ng/mL | 1.63 L/kg | < 1 nM | 100% | 60 min | 6960 ng·h/mL | 75% | 2440 ng/mL | 199.26 ng/mL | 514.7 ng/mL | 86% | Yes | < 100% | Emax ([1]; 0.25 h, relative to 1 mM glycine, read-out: NMDAR2A A: % maximal [3H]MK-801 binding relative to 1 mM glycine): < 100%; EC50 ([10]; read-out: NMDAR2C B: log EC50 (converted)): < 1 nM; NMDAR2C A: % maximal [3H]MK-801 binding relative to 1 mM glycine ([10]; relative to 1 mM glycine): ++ (>100%=++); NMDAR2D A: % maximal [3H]MK-801 binding relative to 1 mM glycine [11]: 0%

From patent publication US20210047324A1 (Aptinyx Inc., priority 2018, published 2021)
